Where two headings read alike, the source gives them in different places.
System: Direct Seeded Rice and weed species
Test: Postemergence herbicidal activity in direct seeded rice, visual rating after 20-22 days and probit GR20/GR50/GR80/GR90 (Table 14)
Type: in vivo
Details: for pest or weed control at 17.5 g/ha / pest or weed control at 35 g/ha / pest or weed control at 70 g/ha: post-emergence, 504 h, postemergence; for pest or weed control at 17.5 g/ha: 17.5 g ai/ha; for pest or weed control at 35 g/ha: 35 g ai/ha; for pest or weed control at 70 g/ha: 70 g ai/ha
Summary of the method: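 Visual injury scores (0 = none, 100 = complete kill) taken 20-22 days after treatment and fitted by probit analysis over several doses to give GR20/GR50/GR80/GR90. Plants at 2nd–3rd true leaf in pH about 8.1 loam–sand mix received track-sprayer applications of 187 L/ha containing 1.25% (v/v) crop oil concentrate.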

[1] = BRAPP (broadleaf signalgrass, Brachiaria platyphylla), read-out: Visual Growth Reduction (%) 21 Days After Application BRAPP
[2] = CYPDI (small-flower flatsedge, Cyperus difformis), read-out: Visual Growth Reduction (%) 21 Days After Application CYPDI
[3] = CYPES (yellow nutsedge, Cyperus esculentus), read-out: Visual Growth Reduction (%) 21 Days After Application CYPES
[4] = CYPIR (rice flatsedge, Cyperus iria), read-out: Visual Growth Reduction (%) 21 Days After Application CYPIR
[5] = DIGSA (large crabgrass, Digitaria sanguinalis), read-out: Visual Growth Reduction (%) 21 Days After Application DIGSA
[6] = ECHCG (barnyardgrass, Echinochloa crus-galli), read-out: Visual Growth Reduction (%) 21 Days After Application ECHCG
[7] = ECHCO (junglerice, Echinochloa colonum), read-out: Visual Growth Reduction (%) 21 Days After Application ECHCO
[8] = LEFCH (Chinese sprangletop, Leptochloa chinensis), read-out: Visual Growth Reduction (%) 21 Days After Application LEFCH
[9] = ORYSJ (Oryza sativa, rice crop), read-out: Visual Growth Reduction (%) 21 Days After Application ORYSJ
[10] = ORYSK (Oryza sativa, rice crop), read-out: Visual Growth Reduction (%) 21 Days After Application ORYSK
[11] = SCPJU (Japanese bulrush, Schoenoplectus juncoides Roxb.), read-out: Visual Growth Reduction (%) 21 Days After Application SCPJU
[12] = SEBEX (hemp sesbania, Sesbania exaltata), read-out: Visual Growth Reduction (%) 21 Days After Application SEBEX

COC(=O)c1nc(-c2ccc3c(c2F)OC(F)(F)O3)cc(N)c1Cl [Compound 37, Methyl 4-amino-3-chloro-6-(2,2,4-trifluorobenzo-[d][1,3]dioxol-5-yl)picolinate]
GR50 BRAPP (BRAPP (Brachiaria platyphylla), probit analysis, dose for 50 percent growth reduction): 3 g ai/ha
GR80 BRAPP (BRAPP (Brachiaria platyphylla), probit analysis, dose for 80 percent growth reduction): 15 g ai/ha
GR90 BRAPP (BRAPP (Brachiaria platyphylla), probit analysis, dose for 90 percent growth reduction): 39 g ai/ha
GR50 CYPDI (CYPDI (Cyperus difformis), probit analysis, dose for 50 percent growth reduction): 0.04 g ai/ha
GR80 CYPDI (CYPDI (Cyperus difformis), probit analysis, dose for 80 percent growth reduction): 1 g ai/ha
GR90 CYPDI (CYPDI (Cyperus difformis), probit analysis, dose for 90 percent growth reduction): 2 g ai/ha
GR50 CYPES (CYPES (Cyperus esculentus), probit analysis, dose for 50 percent growth reduction): <18 g ai/ha
GR80 CYPES (CYPES (Cyperus esculentus), probit analysis, dose for 80 percent growth reduction): <18 g ai/ha
GR90 CYPES (CYPES (Cyperus esculentus), probit analysis, dose for 90 percent growth reduction): <18 g ai/ha
GR50 CYPIR (CYPIR (Cyperus iria), probit analysis, dose for 50 percent growth reduction): 6 g ai/ha
GR80 CYPIR (CYPIR (Cyperus iria), probit analysis, dose for 80 percent growth reduction): 23 g ai/ha
GR90 CYPIR (CYPIR (Cyperus iria), probit analysis, dose for 90 percent growth reduction): 46 g ai/ha
GR50 DIGSA (DIGSA (Digitaria sanguinalis), probit analysis, dose for 50 percent growth reduction): 0.07 g ai/ha
GR80 DIGSA (DIGSA (Digitaria sanguinalis), probit analysis, dose for 80 percent growth reduction): 2 g ai/ha
GR90 DIGSA (DIGSA (Digitaria sanguinalis), probit analysis, dose for 90 percent growth reduction): 8 g ai/ha
GR50 ECHCG (ECHCG (Echinochloa crus-galli), probit analysis, dose for 50 percent growth reduction): 0.33 g ai/ha
GR80 ECHCG (ECHCG (Echinochloa crus-galli), probit analysis, dose for 80 percent growth reduction): 4 g ai/ha
GR90 ECHCG (ECHCG (Echinochloa crus-galli), probit analysis, dose for 90 percent growth reduction): 17 g ai/ha
GR50 ECHCO (ECHCO (Echinochloa colonum), probit analysis, dose for 50 percent growth reduction): 0.001 g ai/ha
GR80 ECHCO (ECHCO (Echinochloa colonum), probit analysis, dose for 80 percent growth reduction): 0.2 g ai/ha
GR90 ECHCO (ECHCO (Echinochloa colonum), probit analysis, dose for 90 percent growth reduction): 3 g ai/ha
GR50 LEFCH (LEFCH (Leptochloa chinensis), probit analysis, dose for 50 percent growth reduction): 116 g ai/ha
GR80 LEFCH (LEFCH (Leptochloa chinensis), probit analysis, dose for 80 percent growth reduction): 288 g ai/ha
GR90 LEFCH (LEFCH (Leptochloa chinensis), probit analysis, dose for 90 percent growth reduction): 464 g ai/ha
GR20 ORYSJ (ORYSJ (Oryza sativa, rice crop), probit analysis, dose for 20 percent growth reduction): 56 g ai/ha
GR20 ORYSK (ORYSK (Oryza sativa, rice crop), probit analysis, dose for 20 percent growth reduction): 70 g ai/ha
GR50 SCPJU (SCPJU (Schoenoplectus juncoides Roxb.), probit analysis, dose for 50 percent growth reduction): 0.0001 g ai/ha
GR80 SCPJU (SCPJU (Schoenoplectus juncoides Roxb.), probit analysis, dose for 80 percent growth reduction): 0.0001 g ai/ha
GR90 SCPJU (SCPJU (Schoenoplectus juncoides Roxb.), probit analysis, dose for 90 percent growth reduction): 0.0001 g ai/ha
GR50 SEBEX (SEBEX (Sesbania exaltata), probit analysis, dose for 50 percent growth reduction): 2 g ai/ha
GR80 SEBEX (SEBEX (Sesbania exaltata), probit analysis, dose for 80 percent growth reduction): 15 g ai/ha
GR90 SEBEX (SEBEX (Sesbania exaltata), probit analysis, dose for 90 percent growth reduction): 47 g ai/ha
pest or weed control at 17.5 g/ha [1]: 60 to 74%
pest or weed control at 35 g/ha [1]: 85 to 94%
pest or weed control at 70 g/ha [1]: 95 to 100%
pest or weed control at 17.5 g/ha [2]: 95 to 100%
pest or weed control at 35 g/ha [2]: 95 to 100%
pest or weed control at 70 g/ha [2]: 95 to 100%
pest or weed control at 17.5 g/ha [3]: 75 to 84%
pest or weed control at 35 g/ha [3]: 85 to 94%
pest or weed control at 70 g/ha [3]: 95 to 100%
pest or weed control at 17.5 g/ha [4]: 85 to 94%
pest or weed control at 35 g/ha [4]: 45 to 59%
pest or weed control at 70 g/ha [4]: 95 to 100%
pest or weed control at 17.5 g/ha [5]: 85 to 94%
pest or weed control at 35 g/ha [5]: 95 to 100%
pest or weed control at 70 g/ha [5]: 95 to 100%
pest or weed control at 17.5 g/ha [6]: 85 to 94%
pest or weed control at 35 g/ha [6]: 85 to 94%
pest or weed control at 70 g/ha [6]: 95 to 100%
pest or weed control at 17.5 g/ha [7]: 85 to 94%
pest or weed control at 35 g/ha [7]: 95 to 100%
pest or weed control at 70 g/ha [7]: 95 to 100%
pest or weed control at 17.5 g/ha [8]: 0 to 29%
pest or weed control at 35 g/ha [8]: 0 to 29%
pest or weed control at 70 g/ha [8]: 45 to 59%
pest or weed control at 17.5 g/ha [9]: 0 to 29%
pest or weed control at 35 g/ha [9]: 0 to 29%
pest or weed control at 70 g/ha [9]: 30 to 44%
pest or weed control at 17.5 g/ha [10]: 0 to 29%
pest or weed control at 35 g/ha [10]: 0 to 29%
pest or weed control at 70 g/ha [10]: 0 to 29%
pest or weed control at 17.5 g/ha [11]: 95 to 100%
pest or weed control at 35 g/ha [11]: 95 to 100%
pest or weed control at 70 g/ha [11]: 95 to 100%
pest or weed control at 17.5 g/ha [12]: 75 to 84%
pest or weed control at 35 g/ha [12]: 85 to 94%
pest or weed control at 70 g/ha [12]: 95 to 100%

Source: patent US9149038B2, “4-amino-6-(heterocyclic)picolinates and 6-amino-2-(heterocyclic)pyrimidine-4-carboxylates and their use as herbicides” (Dow AgroSciences LLC, priority 2013, dated 2015)
